Measurements: paper PMC7011974, “Benzimidazole derivatives endowed with potent antileishmanial activity” (Journal of Enzyme Inhibition and Medicinal Chemistry, 2017)
Like-named read-outs stand apart in the source and are kept apart here.

What was measured:
L. tropica promastigotes = test: Antileishmanial activity on L. tropica promastigotes (MTT); format: cell-based, Leishmania tropica; settings: for IC50: Leishmania tropica, 72 h, read-out: IC50 (µM) L. tropica; for Antileishmanial activity in words: promastigotes of L. tropica and/or L. infantum
[1] = tested on: L. infantum promastigotes; test: Antileishmanial activity on L. infantum promastigotes (MTT); format: cell-based, Leishmania infantum; settings: for IC50: Leishmania infantum, 72 h, read-out: IC50 (µM) L. infantum; for Fold more potent than miltefosine against L. infantum, taking the lowest literature IC50 (15 μM): miltefosine IC50 15 μM from literature
[2] = tested on: human microvascular endothelial cell line (HMEC-1); test: Cytotoxicity on HMEC-1 cells (MTT); format: cell-based; settings: for IC50: Homo sapiens, cytotoxicity, HMEC-1 cells, MTT; for Selectivity index (SI) range versus HMEC cells: range over L. tropica and L. infantum; for SI L. infantum (IC50 HMEC-1/IC50 L. infantum) / SI L. tropica (IC50 HMEC-1/IC50 L. tropica): selectivity index
[3] = Cytotoxicity on Vero-76 cells (crystal violet); settings: monkey, Vero-76 cells
[4] = tested on: monkey kidney (Vero76) cells; test: Cytotoxicity on Vero-76 cells (crystal violet)
in vitro = settings: monkey
[5] = tested on: promastigote stage of L. infantum; settings: read-out: IC50 of miltefosine versus promastigote stage of L. infantum, literature, cited from earlier work
[6] = tested on: intramacrophagic amastigote stage of L. infantum; test: In vitro intracellular amastigote susceptibility assay in THP-1 macrophages; format: cell-based, Leishmania infantum
Method: (b) In vitro intracellular amastigote susceptibility assays. […] Cell monolayers were then washed and incubated with compounds for 72 h. Slides were fixed with methanol and stained with Giemsa. The percentage of infected macrophages in treated and non-treated cells was determined by light microscopy.

[7] = promastigotes, MTT, starred values mean of two experiments
[8] = fold potency versus miltefosine
[9] = percent of amphotericin B potency, calculated for each experiment

Row | SMILES | IC50 (L. tropica promastigotes; [7]) | Ratio IC50 miltef./IC50 compd., L. tropica (L. tropica promastigotes; [8]) | IC50 amph. B ×100/IC50 compd., L. tropica (L. tropica promastigotes; [9]) | IC50 ([1]; promastigotes, MTT) | IC50 [3] | SI L. infantum (IC50 Vero76/IC50 L. infantum) ([4]; selectivity index, Vero76) | SI L. tropica (IC50 Vero76/IC50 L. tropica) ([4]; selectivity index, Vero76) | Ratio IC50 miltef./IC50 compd., L. infantum [1, 8] | IC50 amph. B ×100/IC50 compd., L. infantum [1, 9] | further results
1 | CCCCCCCCCCCc1n(C)c2ccccc2[n+]1CCC.[I-] [Compound 4, 1-Methyl-3-propyl-2-undecyl-1 H-benzimidazol-3-ium iodide] | 0.46 µM | 94.0 | 17.9 | 0.27 ± 0.01 µM | 2.6 µM | 9.63 | 5.65 |  |  | Fold more potent than miltefosine against L. infantum, taking the lowest literature IC50 (15 μM) [1]: 55 fold; IC50 [2]: 2.01 ± 0.24 µM; Selectivity index (SI) range versus HMEC cells [2]: 2.3–7.4; SI L. infantum (IC50 HMEC-1/IC50 L. infantum) [2]: 7.44; SI L. tropica (IC50 HMEC-1/IC50 L. tropica) [2]: 4.37; melting point: 140.2 to 145 °C
2 | O=[N+]([O-])c1ccc2c(c1)nc(Cc1ccc(Cl)cc1)n2C[C@@H]1CCCN2CCCC[C@H]12 [Compound 33] |  |  |  |  |  |  |  |  |  | IC50 amph. B ×100/IC50 compd., L. tropica (L. tropica promastigotes): 2.63; Ratio IC50 miltef./IC50 compd., L. tropica (L. tropica promastigotes): 11.0; IC50 (L. tropica promastigotes): 3.92 ± 1.43 µM; IC50 amph. B ×100/IC50 compd., L. infantum [1]: 1.73; Ratio IC50 miltef./IC50 compd., L. infantum [1]: 4.6; IC50 [1]: 6.82 ± 1.25 µM; IC50 (in vitro): 68 µM; SI L. infantum (IC50 Vero76/IC50 L. infantum) [4]: 9.97; SI L. tropica (IC50 Vero76/IC50 L. tropica) [4]: 17.35
3 | CCCCCCCCCCCCCCCCOP(=O)([O-])OCC[N+](C)(C)C [Miltefosine, miltefosine, reference compound] | 43 µM | 1.0 | 0.26 | 31.3 ± 10.4 µM |  |  |  | 1.0 | 0.27 | IC50 [2]: 99.8 µM; SI L. infantum (IC50 HMEC-1/IC50 L. infantum) [2]: 3.2; IC50 ([5]; ref 6c): 16.7 µM; IC50 ([5]; ref 11a): 15 µM; IC50 ([5]; ref 13b): 19.6 µM
4 | COc1ccc(-c2nc3cc(C(F)(F)F)ccc3n2C[C@@H]2CCCN3CCCC[C@H]23)cc1 [Compound 38] | 6.54 ± 0.18 µM | 6.6 | 2.71 | 11.2 ± 1.33 µM | 75 µM | 6.68 | 11.47 | 2.8 | 1.86 | 
5 | CCCCCCCCCCCCCCCc1n(C)c2ccccc2[n+]1C.[I-] [Compound 8, 1,3-Dimethyl-2-pentadecyl-1 H-benzimidazol-3-ium iodide] | 0.19 ± 0.06 µM |  |  | 0.34 ± 0.12 µM | 5.8 µM |  |  |  | 27.8 | Fold more potent than miltefosine against L. infantum, taking the lowest literature IC50 (15 μM) [1]: 43 fold; IC50 [2]: 0.78 ± 0.06 µM; Selectivity index (SI) range versus HMEC cells [2]: 2.3–7.4; SI L. infantum (IC50 HMEC-1/IC50 L. infantum) [2]: 2.29; SI L. tropica (IC50 HMEC-1/IC50 L. tropica) [2]: 4.10; Fold increased potency with respect to miltefosine, amastigotes ([6]; L. infantum amastigotes in THP-1): 3.35 fold; IC50 ([6]; Leishmania infantum, THP-1 macrophages, 72 h, read-out: IC50 against intramacrophagic amastigote stage of L. infantum): 0.313 µM; melting point: 169 to 172 °C
6 | CCN(CC)CCCn1c(-c2ccc(OC)cc2)nc2cc(C(F)(F)F)ccc21 [Compound 27] | 21.1 ± 5.84 µM | 2.1 | 0.84 | 32.7 ± 3.92 µM | > 100 µM | >3 | >4.74 | 1.0 | 0.64 | Antileishmanial activity in words (L. tropica promastigotes): moderately active
7 | FC(F)(F)c1ccc2c(c1)nc(-c1ccccc1)n2C[C@@H]1CCCN2CCCC[C@H]12 [Compound 35] | 7.31 ± 2.75 µM | 5.9 | 2.42 | 12.1 ± 1.82 µM | 90 µM | 7.44 | 12.3 | 2.6 | 1.73 | 
8 | CC(=O)c1ccc2c(c1)nc(Cc1ccc(Cl)cc1)n2C[C@@H]1CCCN2CCCC[C@H]12 [Compound 30] | 12.1 ± 4.06 µM | 3.6 | 1.46 | 15.9 ± 3.21 µM | > 100 µM | >6.30 | >8.24 | 2.0 | 1.32 | 
9 | Oc1ccc(-c2nc3cc(C(F)(F)F)ccc3n2C[C@@H]2CCCN3CCCC[C@H]23)cc1 [Compound 37] | 13.5 ± 2.21 µM | 3.2 | 1.31 | 17.4 ± 1.49 µM | 78 µM | 4.49 | 5.76 | 1.8 | 1.20 | 
10 | COc1ccc(-c2nc3cc(C(F)(F)F)ccc3n2CCN(C)C)cc1 [Compound 26] | 29.6 ± 0.3 µM | 1.5 | 0.60 | > 55 µM | > 100 µM |  | >3.37 |  |  | Antileishmanial activity in words (L. tropica promastigotes): moderately active
11 | FC(F)(F)c1ccc2c(c1)nc(-c1ccc(Cl)cc1)n2C[C@@H]1CCCN2CCCC[C@H]12 [Compound 36, N-lupinyl-5-trifluoromethyl-2-(4-chlorophenyl)benzimidazole] | 12.6 ± 4.54 µM | 3.4 | 0.69 | 12.5 ± 3.51 µM | 24 µM | 1.92 | 1.90 | 2.5 | 0.95 | 
12 | O=[N+]([O-])c1ccc2c(c1)nc(Cc1ccccc1)n2C[C@@H]1CCCN2CCCC[C@H]12 [Compound 32] |  |  |  |  |  |  |  |  |  | IC50 amph. B ×100/IC50 compd., L. tropica (L. tropica promastigotes): 1.43; Ratio IC50 miltef./IC50 compd., L. tropica (L. tropica promastigotes): 6.0; IC50 (L. tropica promastigotes): 7.22 ± 3.13 µM; IC50 amph. B ×100/IC50 compd., L. infantum [1]: 1.24; Ratio IC50 miltef./IC50 compd., L. infantum [1]: 3.3; IC50 [1]: 9.55 ± 3.11 µM; IC50 (in vitro): 50 µM; SI L. infantum (IC50 Vero76/IC50 L. infantum) [4]: 5.23; SI L. tropica (IC50 Vero76/IC50 L. tropica) [4]: 6.93
13 | COc1ccc(Cc2nc3cc([N+](=O)[O-])ccc3n2C[C@@H]2CCCN3CCCC[C@H]23)cc1 [Compound 34] |  |  |  |  |  |  |  |  |  | IC50 amph. B ×100/IC50 compd., L. tropica (L. tropica promastigotes): 2.99; Ratio IC50 miltef./IC50 compd., L. tropica (L. tropica promastigotes): 12.6; IC50 (L. tropica promastigotes): 3.44 ± 1.43 µM; IC50 amph. B ×100/IC50 compd., L. infantum [1]: 1.77; Ratio IC50 miltef./IC50 compd., L. infantum [1]: 4.7; IC50 [1]: 6.68 ± 1.74 µM; IC50 (in vitro): 49 µM; SI L. infantum (IC50 Vero76/IC50 L. infantum) [4]: 7.33; SI L. tropica (IC50 Vero76/IC50 L. tropica) [4]: 14.24
